# Test results reported in US8906868B2, “Aminoglycoside derivatives” (Rempex Pharmaceuticals, Inc., priority 2010, dated 2014).
# Like-named read-outs stand apart in the source and are kept apart here.
# Legend:
# ACM1006 acc(6′)-Ib = assay: microbe, parasite or virus in culture; assay type: cell-based, Acinetobacter baumannii
# Description: (§1) To compare microbiological activity of the test compounds, minimum inhibitory concentrations (MIC.s) were determined. Antibiotic MICs were obtained using the broth microdilution method according to Clinical and Laboratory Standards Institute (CLSI) approved guidelines (Methods for dilution antimicrobial susceptibility tests for bacteria that grow aerobically; approved standard—7th ed. CLSI document M7-A7. Clinical and Laboratory Standards Institute, Wayne, Pa., incorporated herein by reference in its entirety). Antibiotics were dissolved as specified by CLSI (Performance standards for antimicrobial susceptibility testing; Seventeenth informational supplement. CLSI document M100-S17. Clinical and Laboratory Standards Institute, Wayne, Pa., incorporated herein by reference in its entirety), and were serially diluted 2-fold in cation adjusted Mueller Hinton Broth (CaMHB) at 2× concentration. Bacterial inoculums were prepared in CaMHB by suspension of a colony from an agar plate that was prepared the previous day to obtain a final concentration of 5×10^5CFU/ml. The plates were incubated for 18 hours at 35° C. […] MIC.s were determined by reading the turbidity of plate wells using a SpectraMax Plus384 plate reader (Molecular Devices, Sunnyvale, Calif., USA) at 600 nm and were confirmed by visual inspection.
# [1] = tested on: Staphylococcus aureus (ATCC 29213); assay: MIC, broth microdilution; conditions: for MIC: Staphylococcus aureus
# [2] = tested on: Klebsiella pneumonia (ATCC 43816); assay: MIC, broth microdilution; conditions: Klebsiella pneumoniae, ATCC43816, read-out: Compound MIC on Bacterial Strains: K. pneumonia ATCC 43816
# [3] = tested on: Acinetobacter baumannii (ATCC 19606); assay: MIC, broth microdilution; conditions: Acinetobacter baumannii, ATCC19606, read-out: Compound MIC on Bacterial Strains: A. baumannii ATCC 19606
# PAM3072 aac(6′)-II = assay: microbe, parasite or virus in culture; assay type: cell-based, Pseudomonas aeruginosa
# Description: as §1
# PAM3073 aac(6′)-I = assay: microbe, parasite or virus in culture; assay type: cell-based, Pseudomonas aeruginosa
# Description: as §1
# [4] = tested on: Escherichia coli (ATCC 25922); assay: MIC, broth microdilution; conditions: for MIC: Escherichia coli
# ECM6006 aph(3′)-III = assay: microbe, parasite or virus in culture; assay type: cell-based, Escherichia coli
# Description: as §1
# (§2) Activity of the test compounds was determined using QC strains and strains with known aminoglycoside resistance mechanisms (TABLE 3). This specific panel contained strains expressing enzymes that covalently modify N2″, N3 and N3′ positions.
# ECM6009 aac(3)-II = assay: microbe, parasite or virus in culture; assay type: cell-based, Escherichia coli
# Description: as §1, §2
# ECM6011 aph(3′)-I = assay: microbe, parasite or virus in culture; assay type: cell-based, Escherichia coli
# Description: as §1, §2
# ECM6010 ant(2″)-I = assay: microbe, parasite or virus in culture; assay type: cell-based, Escherichia coli
# Description: as §1, §2
# Sa 287 aac(6′) + aph(2″) = assay: microbe, parasite or virus in culture; assay type: cell-based, Staphylococcus aureus
# Description: as §1
# ECM6003 rmtB = assay: microbe, parasite or virus in culture; assay type: cell-based, Escherichia coli
# Description: as §1, §2
# The panel also contained a strain expressing ribosomal RNA methylase, RmtB.
# EC1002 aph(3′)-IV = assay: organism not typed; assay type: cell-based
# Description: as §1, §2
# [5] = tested on: Pseudomonas aeruginosa (ATCC 27853); assay: MIC, broth microdilution; conditions: for MIC: Pseudomonas aeruginosa
# ACM1005 ATCC 19004 = assay: MIC, broth microdilution; assay type: cell-based, Acinetobacter baumannii
# Description: as §1
# EC1001 acc(6′)-Ib = assay: microbe, parasite or virus in culture; assay type: cell-based, Escherichia coli
# Description: as §1
# [6] = tested on: ECM6007 aac(6′) + aph(2″); assay: microbe, parasite or virus in culture; assay type: cell-based, Escherichia coli
# Description: as §1
compound,measurement,setting,value
"CN[C@@H]1C(O)[C@@H](OC2C(O)C(O[C@H]3O[C@H](CN)CCC3N)[C@@H](N)C[C@H]2NC(=O)[C@@H](O)[C@@H](O)CN)OCC1(C)O (stereo partly drawn) [Compound 21, (2S,3R)-4-amino-N-((1R,2S,3S,4R,5S)-5-amino-4-((2R,3R,6S)-3-amino-6-(aminomethyl)tetrahydro-2H-pyran-2-vyloxy)-2-((2R,3R,4R,5R)-3,5-dihydroxy-5-methyl-4-(methylamino)tetrahydro-2H-pyran-2-yloxy)-3-hydroxycyclohexyl)-2,3-dihydroxybutanamide]",MIC,"ACM1006 acc(6′)-Ib; Acinetobacter baumannii, Table 4, read-out: Compound MIC on Bacterial Strains: Acinetobacter baumannii ACM1006 acc(6′)-Ib",1 to 8 µg/mL
same,MIC,"[1]; ATCC29213, read-out: Compound MIC on Bacterial Strains: S. aureus ATCC 29213, QC strain, Table 2",< 1 µg/mL
same,MIC,"[1]; ATCC29213, read-out: Compound MIC on Bacterial Strains: Staphylococcus aureus SAM1000 ATCC 29213, Table 5",< 1 µg/mL
same,MIC,[2],< 1 µg/mL
same,MIC,[3],> 8 µg/mL
same,MIC,"PAM3072 aac(6′)-II; Pseudomonas aeruginosa, Table 5, read-out: Compound MIC on Bacterial Strains: Pseudomonas aeruginosa PAM3072 aac(6′)-II",> 8 µg/mL
same,MIC,"PAM3073 aac(6′)-I; Pseudomonas aeruginosa, Table 5, read-out: Compound MIC on Bacterial Strains: Pseudomonas aeruginosa PAM3073 aac(6′)-I",1 to 8 µg/mL
same,MIC,"[4]; ATCC25922, read-out: Compound MIC on Bacterial Strains: E. coli ATCC 25922",< 1 µg/mL
same,MIC,"[4]; ATCC25922, read-out: Compound MIC on Bacterial Strains: ECM6000 ATCC 25922",1 to 8 µg/mL
same,MIC,"[4]; ATCC25922, read-out: Compound MIC on Bacterial Strains: Escherichia coli ECM6000 ATCC 25922",1 to 8 µg/mL
same,MIC,"ECM6006 aph(3′)-III; Escherichia coli, read-out: Compound MIC on Bacterial Strains: ECM6006 aph(3′)-III",1 to 8 µg/mL
same,MIC,"ECM6009 aac(3)-II; Escherichia coli, read-out: Compound MIC on Bacterial Strains: ECM6009 aac(3)-II",< 1 µg/mL
same,MIC,"ECM6011 aph(3′)-I; Escherichia coli, read-out: Compound MIC on Bacterial Strains: ECM6011 aph(3′)-I",1 to 8 µg/mL
same,MIC,"ECM6010 ant(2″)-I; Escherichia coli, read-out: Compound MIC on Bacterial Strains: ECM6010 ant(2″)-I",< 1 µg/mL
same,MIC,"Sa 287 aac(6′) + aph(2″); Staphylococcus aureus, 18 h, Table 5, read-out: Compound MIC on Bacterial Strains: Staphylococcus aureus Sa 287 aac(6′) + aph(2″)",1 to 8 µg/mL
same,MIC,"ECM6003 rmtB; Escherichia coli, Table 3, read-out: Compound MIC on Bacterial Strains: ECM6003 rmtB",1 to 8 µg/mL
same,MIC,EC1002 aph(3′)-IV; read-out: Compound MIC on Bacterial Strains: EC1002 aph(3′)-IV,1 to 8 µg/mL
same,MIC,"[5]; ATCC27853, read-out: Compound MIC on Bacterial Strains: P. aeruginosa ATCC 27853",< 1 µg/mL
same,MIC,"[5]; ATCC27853, read-out: Compound MIC on Bacterial Strains: Pseudomonas aeruginosa PAM3034 ATCC 27853",1 to 8 µg/mL
same,MIC,"ACM1005 ATCC 19004; Acinetobacter baumannii, ATCC19004, Table 4, read-out: Compound MIC on Bacterial Strains: Acinetobacter baumannii ACM1005 ATCC 19004",1 to 8 µg/mL
same,MIC,"EC1001 acc(6′)-Ib; Escherichia coli, Table 4, read-out: Compound MIC on Bacterial Strains: Escherichia coli EC1001 acc(6′)-Ib",> 8 µg/mL
same,MIC,"[6]; Escherichia coli, 18 h, Table 4, read-out: Compound MIC on Bacterial Strains: Escherichia coli ECM6007 aac(6′) + aph(2″)",< 1 µg/mL
Gentamicin C1a [reference compound],Compound MIC on Bacterial Strains: Acinetobacter baumannii ACM1006 acc(6′)-Ib,ACM1006 acc(6′)-Ib,C (key: A: MIC of 1 μg/ml or less; B: MIC of greater than 1 μg/ml to 8 μg/ml; MIC of greater than 8 μg/ml)
same,Compound MIC on Bacterial Strains: Staphylococcus aureus SAM1000 ATCC 29213,[1],A (key: A: MIC of 1 μg/ml or less; B: MIC of greater than 1 μg/ml to 8 μg/ml; MIC of greater than 8 μg/ml)
same,Compound MIC on Bacterial Strains: Pseudomonas aeruginosa PAM3072 aac(6′)-II,PAM3072 aac(6′)-II,C (key: A: MIC of 1 μg/ml or less; B: MIC of greater than 1 μg/ml to 8 μg/ml; MIC of greater than 8 μg/ml)
same,Compound MIC on Bacterial Strains: Pseudomonas aeruginosa PAM3073 aac(6′)-I,PAM3073 aac(6′)-I,B (key: A: MIC of 1 μg/ml or less; B: MIC of greater than 1 μg/ml to 8 μg/ml; MIC of greater than 8 μg/ml)
same,Compound MIC on Bacterial Strains: ECM6000 ATCC 25922,[4],A (key: A: MIC of 1 μg/ml or less; B: MIC of greater than 1 μg/ml to 8 μg/ml; MIC of greater than 8 μg/ml)
same,Compound MIC on Bacterial Strains: Escherichia coli ECM6000 ATCC 25922,[4],A (key: A: MIC of 1 μg/ml or less; B: MIC of greater than 1 μg/ml to 8 μg/ml; MIC of greater than 8 μg/ml)
same,Compound MIC on Bacterial Strains: ECM6006 aph(3′)-III,ECM6006 aph(3′)-III,B (key: A: MIC of 1 μg/ml or less; B: MIC of greater than 1 μg/ml to 8 μg/ml; MIC of greater than 8 μg/ml)
same,Compound MIC on Bacterial Strains: ECM6009 aac(3)-II,ECM6009 aac(3)-II,C (key: A: MIC of 1 μg/ml or less; B: MIC of greater than 1 μg/ml to 8 μg/ml; MIC of greater than 8 μg/ml)
same,Compound MIC on Bacterial Strains: ECM6011 aph(3′)-I,ECM6011 aph(3′)-I,B (key: A: MIC of 1 μg/ml or less; B: MIC of greater than 1 μg/ml to 8 μg/ml; MIC of greater than 8 μg/ml)
same,Compound MIC on Bacterial Strains: ECM6010 ant(2″)-I,ECM6010 ant(2″)-I,C (key: A: MIC of 1 μg/ml or less; B: MIC of greater than 1 μg/ml to 8 μg/ml; MIC of greater than 8 μg/ml)
same,Compound MIC on Bacterial Strains: Staphylococcus aureus Sa 287 aac(6′) + aph(2″),Sa 287 aac(6′) + aph(2″),C (key: A: MIC of 1 μg/ml or less; B: MIC of greater than 1 μg/ml to 8 μg/ml; MIC of greater than 8 μg/ml)
same,Compound MIC on Bacterial Strains: ECM6003 rmtB,ECM6003 rmtB,C (key: A: MIC of 1 μg/ml or less; B: MIC of greater than 1 μg/ml to 8 μg/ml; MIC of greater than 8 μg/ml)
same,Compound MIC on Bacterial Strains: EC1002 aph(3′)-IV,EC1002 aph(3′)-IV,A (key: A: MIC of 1 μg/ml or less; B: MIC of greater than 1 μg/ml to 8 μg/ml; MIC of greater than 8 μg/ml)
same,Compound MIC on Bacterial Strains: Pseudomonas aeruginosa PAM3034 ATCC 27853,[5],A (key: A: MIC of 1 μg/ml or less; B: MIC of greater than 1 μg/ml to 8 μg/ml; MIC of greater than 8 μg/ml)
same,Compound MIC on Bacterial Strains: Acinetobacter baumannii ACM1005 ATCC 19004,ACM1005 ATCC 19004,A (key: A: MIC of 1 μg/ml or less; B: MIC of greater than 1 μg/ml to 8 μg/ml; MIC of greater than 8 μg/ml)
same,Compound MIC on Bacterial Strains: Escherichia coli EC1001 acc(6′)-Ib,EC1001 acc(6′)-Ib,C (key: A: MIC of 1 μg/ml or less; B: MIC of greater than 1 μg/ml to 8 μg/ml; MIC of greater than 8 μg/ml)
same,Compound MIC on Bacterial Strains: Escherichia coli ECM6007 aac(6′) + aph(2″),[6],B (key: A: MIC of 1 μg/ml or less; B: MIC of greater than 1 μg/ml to 8 μg/ml; MIC of greater than 8 μg/ml)
